{"source": "PubChem BioAssay AID330", "about": "(DTP/NCI, 2004)", "test_system": "P388 leukemia ip, CD2F1 mice, survival T/C", "assay": "NCI In Vivo Anticancer Drug Screen. Data for tumor model P388 Leukemia (intraperitoneal) in CD2F1 (CDF1) mice", "details": "endpoint: median survival time, higher = longer survival", "summary_of_the_method": "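Mice carrying the transplanted tumor received test compound or vehicle. Survival was recorded in each group, and the value is the treated-group measurement divided by that of the vehicle-treated control group.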", "key": {"[1]": {"details": "dose: 50.0 mg/kg/injection, schedule: Q01DX005 (ip), vehicle: Klucel (hydroxypropylcellulose) (HPC)"}, "[2]": {"details": "dose: 100.0 mg/kg/injection, schedule: Q01DX005 (ip), vehicle: Klucel (hydroxypropylcellulose) (HPC)"}, "[3]": {"details": "dose: 200.0 mg/kg/injection, schedule: Q01DX005 (ip), vehicle: Klucel (hydroxypropylcellulose) (HPC)"}, "[4]": {"details": "dose: 60.0 mg/kg/injection, schedule: Q01DX005 (ip), vehicle: saline with Tween-80"}, "[5]": {"details": "dose: 120.0 mg/kg/injection, schedule: Q01DX005 (ip), vehicle: saline with Tween-80"}, "[6]": {"details": "dose: 50.0 mg/kg/injection, schedule: Q01DX005 (ip), vehicle: saline with Tween-80"}, "[7]": {"details": "dose: 100.0 mg/kg/injection, schedule: Q01DX005 (ip), vehicle: saline with Tween-80"}, "[8]": {"details": "dose: 200.0 mg/kg/injection, schedule: Q01DX005 (ip), vehicle: saline with Tween-80"}}, "note": "“And” between values parts separate entries of the source, which are not always exact repeats. Identical values can stand only once. Toxic doses and inconclusive results are not listed.", "data": [{"compound": "c1ccc2c(Nc3ccc4c(c3)OCO4)c3c(nc2c1)CCCC3", "values": [{"measurement": "T/C", "setting": "dose: 12.5 mg/kg/injection, schedule: Q01DX005 (ip), vehicle: Klucel (hydroxypropylcellulose) (HPC)", "result": "102 % of control"}, {"measurement": "T/C", "setting": "dose: 25.0 mg/kg/injection, schedule: Q01DX005 (ip), vehicle: Klucel (hydroxypropylcellulose) (HPC)", "result": "101 % of control"}, {"measurement": "T/C", "setting": "[1]", "result": "100 % of control and 112 % of control"}]}, {"compound": "O=c1cc2[nH]c3ccccc3c(=O)n2[nH]1", "values": [{"measurement": "T/C", "setting": "[1]", "result": "98 % of control"}, {"measurement": "T/C", "setting": "[2]", "result": "97 % of control"}, {"measurement": "T/C", "setting": "[3]", "result": "95 % of control"}]}, {"compound": "CC[n+]1ccc2c(C)c3[nH]c4ccc(O)cc4c3c(C)c2c1", "values": [{"measurement": "T/C", "setting": "dose: 1.56 mg/kg/injection, schedule: Q04DX003 (ip), vehicle: saline", "result": "165 % of control"}, {"measurement": "T/C", "setting": "dose: 3.12 mg/kg/injection, schedule: Q04DX003 (ip), vehicle: saline", "result": "192 % of control"}, {"measurement": "T/C", "setting": "dose: 6.25 mg/kg/injection, schedule: Q04DX003 (ip), vehicle: saline", "result": "171 % of control and 223 % of control"}, {"measurement": "T/C", "setting": "dose: 12.5 mg/kg/injection, schedule: Q04DX003 (ip), vehicle: saline", "result": "103 % of control and 90 % of control"}, {"measurement": "T/C", "setting": "dose: 25.0 mg/kg/injection, schedule: Q04DX003 (ip), vehicle: saline", "result": "90 % of control"}, {"measurement": "T/C", "setting": "dose: 50.0 mg/kg/injection, schedule: Q04DX003 (ip), vehicle: saline", "result": "90 % of control"}]}, {"compound": "CC(C)C1NC(=O)N(C2CCCCCC2)C1=O", "note": "(stereo not given)", "values": [{"measurement": "T/C", "setting": "[1]", "result": "100 % of control"}, {"measurement": "T/C", "setting": "[2]", "result": "96 % of control"}, {"measurement": "T/C", "setting": "[3]", "result": "100 % of control"}]}, {"compound": "COc1ccccc1C(=O)Nc1c(C)cccc1Cl", "values": [{"measurement": "T/C", "setting": "[4]", "result": "100 % of control"}, {"measurement": "T/C", "setting": "[5]", "result": "103 % of control"}, {"measurement": "T/C", "setting": "dose: 240.0 mg/kg/injection, schedule: Q01DX005 (ip), vehicle: saline with Tween-80", "result": "94 % of control"}]}, {"compound": "COc1cc(C(O)(CCN2CCCCC2)c2ccc3c(c2)OCO3)cc(OC)c1OC", "note": "(stereo not given)", "values": [{"measurement": "T/C", "setting": "dose: 50.0 mg/kg/injection, schedule: Q01DX005 (ip), vehicle: saline + Tween-80 + alcohol", "result": "94 % of control"}, {"measurement": "T/C", "setting": "dose: 100.0 mg/kg/injection, schedule: Q01DX005 (ip), vehicle: saline + Tween-80 + alcohol", "result": "100 % of control"}, {"measurement": "T/C", "setting": "dose: 200.0 mg/kg/injection, schedule: Q01DX005 (ip), vehicle: saline + Tween-80 + alcohol", "result": "93 % of control"}]}, {"compound": "CCOC(=O)C(C)(C)CN1COCC1(C)C", "values": [{"measurement": "T/C", "setting": "dose: 50.0 mg/kg/injection, schedule: Q01DX001 (ip), vehicle: saline with Tween-80", "result": "104 % of control"}, {"measurement": "T/C", "setting": "dose: 100.0 mg/kg/injection, schedule: Q01DX001 (ip), vehicle: saline with Tween-80", "result": "104 % of control"}, {"measurement": "T/C", "setting": "dose: 200.0 mg/kg/injection, schedule: Q01DX001 (ip), vehicle: saline with Tween-80", "result": "118 % of control"}]}, {"compound": "COc1ccc(C(=O)c2ccc(OCCBr)cc2)c(O)c1", "values": [{"measurement": "T/C", "setting": "[6]", "result": "92 % of control"}, {"measurement": "T/C", "setting": "[7]", "result": "88 % of control"}, {"measurement": "T/C", "setting": "[8]", "result": "88 % of control"}]}, {"compound": "O=c1cc(O)nc2cn[nH]n12", "values": [{"measurement": "T/C", "setting": "dose: 50.0 mg/kg/injection, schedule: Q01DX009 (ip), vehicle: saline", "result": "99 % of control"}, {"measurement": "T/C", "setting": "dose: 100.0 mg/kg/injection, schedule: Q01DX009 (ip), vehicle: saline", "result": "90 % of control"}, {"measurement": "T/C", "setting": "dose: 200.0 mg/kg/injection, schedule: Q01DX009 (ip), vehicle: saline", "result": "101 % of control"}]}, {"compound": "C=C(C)C#CCN(CCO)C(C)C", "values": [{"measurement": "T/C", "setting": "[4]", "result": "102 % of control"}, {"measurement": "T/C", "setting": "[5]", "result": "98 % of control"}]}, {"compound": "CC1=CCC(C(C)(O)C2CCC3(C)C4=C(C=C5C=CC(=O)OC(C)(C)C5CC4)CCC23C)OC1=O", "note": "(stereo not given)", "values": [{"measurement": "T/C", "setting": "dose: 12.5 mg/kg/injection, schedule: Q01DX005 (ip), vehicle: other", "result": "94 % of control"}, {"measurement": "T/C", "setting": "dose: 25.0 mg/kg/injection, schedule: Q01DX005 (ip), vehicle: other", "result": "92 % of control"}]}, {"compound": "N#CSCc1ccccc1Cl", "values": [{"measurement": "T/C", "setting": "dose: 2.5 mg/kg/injection, schedule: Q01DX009 (ip), vehicle: saline with Tween-80", "result": "104 % of control"}, {"measurement": "T/C", "setting": "dose: 5.0 mg/kg/injection, schedule: Q01DX009 (ip), vehicle: saline with Tween-80", "result": "104 % of control"}, {"measurement": "T/C", "setting": "dose: 10.0 mg/kg/injection, schedule: Q01DX009 (ip), vehicle: saline with Tween-80", "result": "90 % of control"}]}, {"compound": "CS1=C2C(=O)CCCC2=Nc2ccccc21", "note": "(stereo not given)", "values": [{"measurement": "T/C", "setting": "dose: 50.0 mg/kg/injection, schedule: Q01DX005 (ip), vehicle: saline", "result": "97 % of control"}, {"measurement": "T/C", "setting": "dose: 100.0 mg/kg/injection, schedule: Q01DX005 (ip), vehicle: saline", "result": "100 % of control"}]}, {"compound": "O=C1c2ccccc2-c2c1c1ccccc1c(=O)n2-c1cccnc1", "values": [{"measurement": "T/C", "setting": "[6]", "result": "111 % of control"}, {"measurement": "T/C", "setting": "[7]", "result": "101 % of control"}, {"measurement": "T/C", "setting": "[8]", "result": "97 % of control"}]}, {"compound": "CC(=O)Nc1nc(N)nc2c1CC(N(Cc1ccc(Cl)cc1)C(C)=O)CC2", "note": "(stereo not given)", "values": [{"measurement": "T/C", "setting": "dose: 50.0 mg/kg/injection, schedule: Q01DX009 (ip), vehicle: saline with Tween-80", "result": "108 % of control"}, {"measurement": "T/C", "setting": "dose: 100.0 mg/kg/injection, schedule: Q01DX009 (ip), vehicle: saline with Tween-80", "result": "119 % of control"}, {"measurement": "T/C", "setting": "dose: 200.0 mg/kg/injection, schedule: Q01DX009 (ip), vehicle: saline with Tween-80", "result": "154 % of control"}]}]}
